{
  "source": "patent US7855213B2",
  "about": "(AstraZeneca AB, priority 2006, dated 2010)",
  "note": "Structures can show the parent of a compound that is named as a salt.",
  "data": [
    {"biological_target": "T1, human β-Secretase (Homo sapiens, UniProt P56817)", "T1 construct": "The soluble part of the human β-Secretase (AA 1-AA 460) was cloned; made in house", "T1 sequence (P56817 22-460)": "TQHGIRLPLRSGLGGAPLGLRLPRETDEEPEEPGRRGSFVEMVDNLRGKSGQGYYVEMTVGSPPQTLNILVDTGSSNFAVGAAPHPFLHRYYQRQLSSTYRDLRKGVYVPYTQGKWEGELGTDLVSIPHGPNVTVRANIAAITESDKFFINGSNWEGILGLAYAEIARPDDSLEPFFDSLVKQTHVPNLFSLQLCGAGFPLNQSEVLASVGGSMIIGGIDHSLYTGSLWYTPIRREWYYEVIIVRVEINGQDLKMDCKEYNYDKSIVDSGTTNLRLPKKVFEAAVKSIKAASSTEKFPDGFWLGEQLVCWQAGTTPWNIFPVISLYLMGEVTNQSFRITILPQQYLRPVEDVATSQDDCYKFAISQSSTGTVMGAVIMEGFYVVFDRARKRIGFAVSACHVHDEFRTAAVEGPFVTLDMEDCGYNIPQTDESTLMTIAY", "test": "TR-FRET assay", "type": "biochemical", "units": {"IC50": "nM"}, "values": [
      {"smiles": "COc1cc(OS(C)(=O)=O)cc(-c2cccc(C3(c4ccc(OS(C)(=O)=O)cc4)N=C(N)c4ccccc43)c2)c1", "note": "(stereo not shown) [Example 41, Methanesulfonic acid 4-[3-amino-1-(5′-methane-sulfonyloxy-3′-methoxy-biphenyl-3-yl)-1H-isoindol-1-yl]-phenyl ester trifluoroacetate]", "IC50": 575},
      {"smiles": "NC1=NC(c2ccncc2)(c2cccc(-c3cccnc3F)c2)c2ccccc21", "note": "(stereo not shown) [Example 42, 3-[3-(2-Fluoro-pyridin-3-yl)-phenyl]-3-pyridin-4-yl-3H-isoindol-1-ylamine trifluoroacetate]", "IC50": 110},
      {"smiles": "NC1=NC(c2ccncc2)(c2cccc(-c3cccnc3)c2)c2ccccc21", "note": "(stereo not shown) [Example 44, 3-Pyridin-4-yl-3-(3-pyridin-3-yl-phenyl)-3H-isoindol-1-ylamine trifluoroacetate]", "IC50": 213},
      {"smiles": "NC1=NC(c2ccncc2)(c2cccc(-c3cncnc3)c2)c2ccccc21", "note": "(stereo not shown) [Example 45, 3-Pyridin-4-yl-3-(3-pyrimidin-5-yl-phenyl)-3H-isoindol-1-ylamine trifluoroacetate]", "IC50": 501},
      {"smiles": "COc1cncc(-c2cccc(C3(c4ccncc4)N=C(N)c4ccccc43)c2)c1", "note": "(stereo not shown) [Example 46, 3-[3-(5-Methoxy-pyridin-3-yl)-phenyl]-3-pyridin-4-yl-3H-isoindol-1-ylamine trifluoroacetate]", "IC50": 98},
      {"smiles": "COc1cccc(-c2cccc(C3(c4ccncc4)N=C(N)c4ccccc43)c2)c1", "note": "(stereo not shown) [Example 47, 3-(3′-Methoxy-biphenyl-3-yl)-3-pyridin-4-yl-3H-isoindol-1-ylamine trifluoroacetate]", "IC50": 55},
      {"smiles": "COc1ccc(C2(c3cccc(-c4ccsc4C=O)c3)N=C(N)c3ccccc32)cc1", "note": "(stereo not shown) [Example 48, 3-{3-[3-Amino-1-(4-methoxyphenyl)-1H-isoindol-1-yl]phenyl}thiophene-2-carbaldehyde 1.5 acetate]", "IC50": 300},
      {"smiles": "COc1ccc(C2(c3cccc(-c4ccc(C)o4)c3)N=C(N)c3ccccc32)cc1", "note": "(stereo not shown) [Example 54, 1-(4-Methoxyphenyl)-1-[3-(5-methyl-2-furyl)phenyl]-1H-isoindol-3-amine 0.5 acetate]", "IC50": 1000},
      {"smiles": "COc1ccc(C2(c3cccc(-c4ccccc4C(N)=O)c3)N=C(N)c3ccccc32)cc1", "note": "(stereo not shown) [Example 55, 3′-[3-Amino-1-(4-methoxyphenyl)-1H-isoindol-1-yl]biphenyl-2-carboxamide 0.5 acetate]", "IC50": 2000},
      {"smiles": "NC1=NC(c2ccc(OC(F)(F)F)cc2)(c2cccc(-c3cncc(F)c3)c2)c2ccccc21", "note": "(stereo not shown) [Example 56, 1-[3-(5-Fluoropyridin-3-yl)phenyl]-1-[4-(trifluoromethoxy)phenyl]-1H-isoindol-3-amine 0.75 acetate]", "IC50": 200},
      {"smiles": "NC1=NC(c2ccc(OC(F)(F)F)cc2)(c2cccc(-c3cncnc3)c2)c2ccccc21", "note": "(stereo not shown) [Example 57, 1-(3-Pyrimidin-5-ylphenyl)-1-[4-(trifluoromethoxy)phenyl]-1H-isoindol-3-amine 0.25 acetate]", "IC50": 180},
      {"smiles": "N#Cc1ccc(C2(c3cccc(-c4cncnc4)c3)N=C(N)c3ccccc32)cc1", "note": "(stereo not shown) [Example 58, 4-[3-Amino-1-(3-pyrimidin-5-ylphenyl)-1H-isoindol-1-yl]benzonitrile 0.25 acetate]", "IC50": 710},
      {"smiles": "NC1=NC(c2ccc(C(F)(F)F)cc2)(c2cccc(-c3cncc(F)c3)c2)c2ccccc21", "note": "(stereo not shown) [Example 59, 1-[3-(5-Fluoropyridin-3-yl)phenyl]-1-[4-(trifluoromethyl)phenyl]-1H-isoindol-3-amine 0.25 acetate]", "IC50": 630},
      {"smiles": "NC1=NC(c2ccc(C(F)(F)F)cc2)(c2cccc(-c3cncnc3)c2)c2ccccc21", "note": "(stereo not shown) [Example 60, 1-(3-Pyrimidin-5-ylphenyl)-1-[4-(trifluoromethyl)phenyl]1H-isoindol-3-amine 0.25 acetate]", "IC50": 570},
      {"smiles": "NC1=NC(c2ccncc2)(c2cccc(-c3ccsc3C=O)c2)c2ccccc21", "note": "(stereo not shown) [Example 61, 3-[3-(3-Amino-1-pyridin-4-yl-1H-isoindol-1-yl)phenyl]thiophene-2-carbaldehyde]", "IC50": 2000},
      {"smiles": "CC(C)Cn1cc(-c2cccc(C3(c4ccncc4)N=C(N)c4ccccc43)c2)cn1", "note": "(stereo not shown) [Example 62, 1-[3-(1-Isobutyl-1H-pyrazol-4-yl)phenyl]-1-pyridin-4-yl-1H-isoindol-3-amine 0.25]", "IC50": "> 10000"},
      {"smiles": "Cc1ccc(-c2cccc(C3(c4ccncc4)N=C(N)c4ccccc43)c2)o1", "note": "(stereo not shown) [Example 63, 1-[3-(5-Methyl-2-furyl)phenyl]-1-pyridin-4-yl-1H-isoindol-3-amine acetate]", "IC50": 1100},
      {"smiles": "NC(=O)c1ccccc1-c1cccc(C2(c3ccncc3)N=C(N)c3ccccc32)c1", "note": "(stereo not shown) [Example 64, 3′-(3-Amino-1-pyridin-4-yl-1H-isoindol-1-yl)biphenyl-2-carboxamide 0.25 acetate]", "IC50": "> 3100"},
      {"smiles": "N#Cc1ccc(C2(c3cccc(-c4cccnc4F)c3)N=C(N)c3ccccc32)cc1", "note": "(stereo not shown) [Example 65, 4-{3-Amino-1-[3-(2-fluoropyridin-3-yl)phenyl]-1H-isoindol-1-yl}benzonitrile]", "IC50": 400},
      {"smiles": "NC1=NC(c2ccc(C(F)(F)F)cc2)(c2cccc(-c3cccnc3F)c2)c2ccccc21", "note": "(stereo not shown) [Example 66, 1-[3-(2-Fluoropyridin-3-yl)phenyl]-1-[4-(trifluoromethyl)phenyl]-1H-isoindol-3-amine]", "IC50": 520},
      {"smiles": "NC1=NC(c2ccncc2)(c2cccc(-c3cncc(F)c3)c2)c2ccccc21", "note": "(stereo not shown) [Example 67, 1-[3-(5-Fluoropyridin-3-yl)phenyl]-1-pyridin-4-yl-1H-isoindol-3-amine 0.75 acetate]", "IC50": 92},
      {"smiles": "NC1=NC(c2ccncc2)(c2ccc(F)c(-c3cncnc3)c2)c2ccccc21", "note": "(stereo not shown) [Example 68, 1-(4-Fluoro-3-pyrimidin-5-ylphenyl)-1-pyridin-4-yl-1H-isoindol-3-amine 0.5 acetate]", "IC50": 81},
      {"smiles": "NC1=NC(c2ccncc2)(c2ccc(F)c(-c3cncc(F)c3)c2)c2ccccc21", "note": "(stereo not shown) [Example 69, 1-[4-Fluoro-3-(5-fluoropyridin-3-yl)phenyl]-1-pyridin-4-yl-1H-isoindol-3-amine 0.75 acetate]", "IC50": 99},
      {"smiles": "NC1=NC(c2cccc(-c3cncc(F)c3)c2)(c2ccncc2F)c2ccccc21", "note": "(stereo not shown) [Example 71, 1-(3-Fluoropyridin-4-yl)-1-[3-(5-fluoropyridin-3-yl)phenyl]-1H-isoindol-3-amine 0.5 acetate]", "IC50": 190},
      {"smiles": "NC1=NC(c2cccc(-c3cncnc3)c2)(c2ccncc2F)c2ccccc21", "note": "(stereo not shown) [Example 72, 1-(3-Fluoropyridin-4-yl)-1-(3-pyrimidin-5-ylphenyl)-1H-isoindol-3-amine 1.25 acetate]", "IC50": 250},
      {"smiles": "NC1=NC(c2cccc(-c3cccnc3F)c2)(c2ccncc2F)c2ccccc21", "note": "(stereo not shown) [Example 73, 1-(3-Fluoropyridin-4-yl)-1-[3-(2-fluoropyridin-3-yl)phenyl]-1H-isoindol-3-amine 1.25 acetate]", "IC50": 130},
      {"smiles": "NC1=NC(c2ccc(F)c(-c3cncnc3)c2)(c2ccncc2F)c2ccccc21", "note": "(stereo not shown) [Example 74, 1-(3-Fluoropyridin-4-yl)-1-(4-fluoro-3-pyrimidin-5-ylphenyl)-1H-isoindol-3-amine 1.25 acetate]", "IC50": 150},
      {"smiles": "NC1=NC(c2ccc(F)c(-c3cncc(F)c3)c2)(c2ccncc2F)c2ccccc21", "note": "(stereo not shown) [Example 75, 1-[4-Fluoro-3-(5-fluoropyridin-3-yl)phenyl]-1-(3-fluoropyridin-4-yl)-1H-isoindol-3-amine 1.5 acetate]", "IC50": 280}
    ]}
  ]
}
